{"source": "paper PMC8333425", "about": "“Discovery of a dual Ras and ARF6 inhibitor from a GPCR endocytosis screen” (Nature Communications, 2021)", "experiment_in_all_cases": "KINOMEscan kinase binding assay", "key": {"[1]": {"target": "T1, 384 kinases from the human genome (Homo sapiens, UniProt Q96SB4)", "T1 construct": "purchased Eurofin/DiscoverX", "T1 sequence (Q96SB4 whole entry)": "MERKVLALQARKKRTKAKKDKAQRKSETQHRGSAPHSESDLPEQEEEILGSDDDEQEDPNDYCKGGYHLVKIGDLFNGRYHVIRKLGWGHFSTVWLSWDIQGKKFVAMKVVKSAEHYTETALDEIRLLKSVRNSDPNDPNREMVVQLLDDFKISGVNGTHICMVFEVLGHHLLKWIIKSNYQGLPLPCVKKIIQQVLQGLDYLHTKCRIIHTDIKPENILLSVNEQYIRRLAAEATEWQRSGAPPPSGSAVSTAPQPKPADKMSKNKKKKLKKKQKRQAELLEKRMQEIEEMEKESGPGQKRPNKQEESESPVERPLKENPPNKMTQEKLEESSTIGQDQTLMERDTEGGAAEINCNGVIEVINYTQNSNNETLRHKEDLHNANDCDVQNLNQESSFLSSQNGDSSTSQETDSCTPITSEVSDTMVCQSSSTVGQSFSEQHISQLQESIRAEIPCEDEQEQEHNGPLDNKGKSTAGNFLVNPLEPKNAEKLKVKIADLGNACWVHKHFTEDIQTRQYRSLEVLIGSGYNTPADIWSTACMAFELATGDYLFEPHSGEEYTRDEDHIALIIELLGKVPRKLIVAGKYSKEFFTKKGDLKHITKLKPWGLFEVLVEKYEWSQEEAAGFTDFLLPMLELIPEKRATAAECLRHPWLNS", "conditions": "kinase SRPK1 (Entrez SRPK1)", "procedure,_shortened": "(§1)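 Competition binding (KINOMEscan) across 384 human kinases with compound at 10 µM. Ligand binding was expressed relative to DMSO (100%) as the average of duplicates from one experiment. S(10) selectivity score was derived.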"}, "[2]": {"target": "T2, 384 kinases from the human genome (Homo sapiens, UniProt Q8IVH8)", "T2 construct": "purchased Eurofin/DiscoverX", "conditions": "kinase MAP4K3 (Entrez MAP4K3)", "procedure,_shortened": "as §1"}, "[3]": {"target": "T3, 384 kinases from the human genome (Homo sapiens, UniProt Q7L7X3)", "T3 construct": "purchased Eurofin/DiscoverX", "conditions": "kinase TAOK1 (Entrez TAOK1)", "procedure,_shortened": "as §1"}, "[4]": {"target": "T4, 384 kinases from the human genome (Homo sapiens, UniProt P08069)", "T4 construct": "purchased Eurofin/DiscoverX", "conditions": "kinase IGF1R (Entrez IGF1R)", "procedure,_shortened": "as §1"}, "[5]": {"target": "T5, 384 kinases from the human genome (Homo sapiens, UniProt Q16620)", "T5 construct": "purchased Eurofin/DiscoverX", "T5 sequence (Q16620 32-822)": "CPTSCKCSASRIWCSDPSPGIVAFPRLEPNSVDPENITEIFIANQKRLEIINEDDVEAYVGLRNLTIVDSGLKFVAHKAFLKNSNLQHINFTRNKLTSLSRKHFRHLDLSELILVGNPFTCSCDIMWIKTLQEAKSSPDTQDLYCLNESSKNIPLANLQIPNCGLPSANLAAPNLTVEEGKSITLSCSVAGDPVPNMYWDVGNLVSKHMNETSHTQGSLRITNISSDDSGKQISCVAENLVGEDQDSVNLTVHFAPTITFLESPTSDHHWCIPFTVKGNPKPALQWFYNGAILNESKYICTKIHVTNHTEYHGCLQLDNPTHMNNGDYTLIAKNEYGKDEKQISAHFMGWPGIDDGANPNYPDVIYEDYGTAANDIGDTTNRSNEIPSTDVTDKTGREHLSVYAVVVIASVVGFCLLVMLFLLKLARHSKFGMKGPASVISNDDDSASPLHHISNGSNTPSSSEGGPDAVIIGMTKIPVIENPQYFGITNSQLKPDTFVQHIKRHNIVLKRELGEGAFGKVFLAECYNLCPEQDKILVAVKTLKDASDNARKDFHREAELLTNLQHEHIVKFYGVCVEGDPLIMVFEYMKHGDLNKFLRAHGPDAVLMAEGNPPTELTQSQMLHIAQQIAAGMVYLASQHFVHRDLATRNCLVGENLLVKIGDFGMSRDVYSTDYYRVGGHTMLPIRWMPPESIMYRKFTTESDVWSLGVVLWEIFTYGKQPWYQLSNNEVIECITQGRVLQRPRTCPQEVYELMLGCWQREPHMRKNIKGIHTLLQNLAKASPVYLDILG", "conditions": "kinase TRKB (Entrez NTRK2)", "procedure,_shortened": "as §1"}, "[6]": {"target": "T6, 384 kinases from the human genome (Homo sapiens, UniProt Q06187)", "T6 construct": "purchased Eurofin/DiscoverX", "conditions": "kinase BTK (Entrez BTK)", "procedure,_shortened": "as §1"}, "[7]": {"target": "T7, 384 kinases from the human genome (Homo sapiens, UniProt P45984)", "T7 construct": "purchased Eurofin/DiscoverX", "T7 sequence (P45984 whole entry)": "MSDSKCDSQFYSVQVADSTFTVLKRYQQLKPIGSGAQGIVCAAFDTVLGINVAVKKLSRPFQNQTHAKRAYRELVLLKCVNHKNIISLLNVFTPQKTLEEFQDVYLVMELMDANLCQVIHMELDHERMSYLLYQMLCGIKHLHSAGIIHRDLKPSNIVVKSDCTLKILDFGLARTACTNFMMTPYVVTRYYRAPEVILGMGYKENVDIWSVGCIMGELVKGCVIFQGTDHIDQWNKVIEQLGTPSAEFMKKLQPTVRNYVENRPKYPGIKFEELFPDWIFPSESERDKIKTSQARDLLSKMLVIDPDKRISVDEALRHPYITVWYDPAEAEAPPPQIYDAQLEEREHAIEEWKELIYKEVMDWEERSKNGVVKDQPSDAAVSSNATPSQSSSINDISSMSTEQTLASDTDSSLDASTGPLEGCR", "conditions": "kinase JNK2 (Entrez MAPK9)", "procedure,_shortened": "as §1"}, "[8]": {"target": "T8, 384 kinases from the human genome (Homo sapiens, UniProt Q99755)", "T8 construct": "purchased Eurofin/DiscoverX", "conditions": "kinase PIP5K1A (Entrez PIP5K1A)", "procedure,_shortened": "as §1"}, "[9]": {"target": "T9, 384 kinases from the human genome (Homo sapiens, UniProt Q96J92)", "T9 construct": "purchased Eurofin/DiscoverX", "conditions": "kinase WNK4 (Entrez WNK4)", "procedure,_shortened": "as §1"}, "[10]": {"target": "T10, 384 kinases from the human genome (Homo sapiens, UniProt Q9P289)", "T10 construct": "purchased Eurofin/DiscoverX", "T10 sequence (Q9P289 whole entry)": "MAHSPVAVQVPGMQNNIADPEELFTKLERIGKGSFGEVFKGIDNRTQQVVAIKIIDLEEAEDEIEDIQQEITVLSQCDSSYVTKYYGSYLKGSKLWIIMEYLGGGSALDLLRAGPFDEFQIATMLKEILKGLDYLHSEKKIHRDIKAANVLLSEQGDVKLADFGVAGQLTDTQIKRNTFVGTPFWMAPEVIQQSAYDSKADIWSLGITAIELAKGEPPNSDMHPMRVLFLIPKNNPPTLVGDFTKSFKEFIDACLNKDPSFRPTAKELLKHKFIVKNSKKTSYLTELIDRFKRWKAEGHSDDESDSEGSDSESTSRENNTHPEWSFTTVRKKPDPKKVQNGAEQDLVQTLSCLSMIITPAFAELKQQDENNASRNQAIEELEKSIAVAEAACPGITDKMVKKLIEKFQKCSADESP", "conditions": "kinase MST4 (Entrez MST4)", "procedure,_shortened": "as §1"}, "[11]": {"target": "T11, 384 kinases from the human genome (Homo sapiens, UniProt P28482)", "T11 construct": "purchased Eurofin/DiscoverX", "conditions": "kinase ERK2 (Entrez MAPK1)", "procedure,_shortened": "as §1"}, "[12]": {"target": "T12, 384 kinases from the human genome (Homo sapiens, UniProt Q9UBF8)", "T12 construct": "purchased Eurofin/DiscoverX", "conditions": "kinase PIK4CB (Entrez PI4KB)", "procedure,_shortened": "as §1"}, "[13]": {"target": "T13, 384 kinases from the human genome (Homo sapiens, UniProt P29320)", "T13 construct": "purchased Eurofin/DiscoverX", "conditions": "kinase EPHA3 (Entrez EPHA3)", "procedure,_shortened": "as §1"}, "[14]": {"target": "T14, 384 kinases from the human genome (Homo sapiens, UniProt Q07002)", "T14 construct": "purchased Eurofin/DiscoverX", "T14 sequence (Q07002 whole entry)": "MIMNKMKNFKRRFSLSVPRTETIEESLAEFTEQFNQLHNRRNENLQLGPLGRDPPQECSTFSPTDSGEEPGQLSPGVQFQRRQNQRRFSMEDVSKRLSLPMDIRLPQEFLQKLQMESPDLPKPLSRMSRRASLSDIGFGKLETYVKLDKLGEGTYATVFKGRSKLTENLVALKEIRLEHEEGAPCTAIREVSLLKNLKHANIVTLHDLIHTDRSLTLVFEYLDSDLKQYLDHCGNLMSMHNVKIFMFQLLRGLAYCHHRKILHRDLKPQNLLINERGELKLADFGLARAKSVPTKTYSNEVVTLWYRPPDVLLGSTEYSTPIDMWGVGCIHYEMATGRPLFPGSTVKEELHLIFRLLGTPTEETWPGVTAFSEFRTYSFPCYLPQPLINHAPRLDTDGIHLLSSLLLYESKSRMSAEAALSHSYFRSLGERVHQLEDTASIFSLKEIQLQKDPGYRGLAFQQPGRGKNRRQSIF", "conditions": "kinase PCTK3 (Entrez CDK18)", "procedure,_shortened": "as §1"}, "[15]": {"target": "T15, 384 kinases from the human genome (Homo sapiens, UniProt P53350)", "T15 construct": "purchased Eurofin/DiscoverX", "T15 sequence (P53350 whole entry)": "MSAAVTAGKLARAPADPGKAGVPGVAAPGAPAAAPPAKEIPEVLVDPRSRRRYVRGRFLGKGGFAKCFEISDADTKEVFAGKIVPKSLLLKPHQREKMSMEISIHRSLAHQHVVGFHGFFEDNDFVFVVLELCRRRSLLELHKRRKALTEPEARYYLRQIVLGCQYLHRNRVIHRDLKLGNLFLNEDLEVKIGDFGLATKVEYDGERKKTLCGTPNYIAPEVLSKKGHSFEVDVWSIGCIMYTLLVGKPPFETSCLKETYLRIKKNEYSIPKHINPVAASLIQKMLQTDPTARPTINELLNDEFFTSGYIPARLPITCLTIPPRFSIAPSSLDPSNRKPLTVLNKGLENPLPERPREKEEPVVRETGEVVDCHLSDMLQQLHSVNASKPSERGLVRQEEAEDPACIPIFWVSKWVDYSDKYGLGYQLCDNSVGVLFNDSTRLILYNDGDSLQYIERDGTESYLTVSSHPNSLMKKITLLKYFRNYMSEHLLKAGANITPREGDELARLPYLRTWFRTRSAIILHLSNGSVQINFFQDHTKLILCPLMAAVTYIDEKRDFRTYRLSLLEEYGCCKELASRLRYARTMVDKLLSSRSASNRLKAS", "conditions": "kinase PLK1 (Entrez PLK1)", "procedure,_shortened": "as §1"}, "[16]": {"target": "T16, 384 kinases from the human genome (Homo sapiens, UniProt Q9Y4K4)", "T16 construct": "purchased Eurofin/DiscoverX", "conditions": "kinase MAP4K5 (Entrez MAP4K5)", "procedure,_shortened": "as §1"}, "[17]": {"target": "T17, 384 kinases from the human genome (Homo sapiens, UniProt O00506)", "T17 construct": "purchased Eurofin/DiscoverX", "conditions": "kinase YSK1 (Entrez STK25)", "procedure,_shortened": "as §1"}, "[18]": {"target": "T18, 384 kinases from the human genome (Homo sapiens, UniProt Q15208)", "T18 construct": "purchased Eurofin/DiscoverX", "conditions": "kinase NDR1 (Entrez STK38)", "procedure,_shortened": "as §1"}, "[19]": {"target": "T19, 384 kinases from the human genome (Homo sapiens, UniProt P78368)", "T19 construct": "purchased Eurofin/DiscoverX", "conditions": "kinase CSNK1G2 (Entrez CSNK1G2)", "procedure,_shortened": "as §1"}, "[20]": {"target": "T20, 384 kinases from the human genome (Homo sapiens, UniProt P49840)", "T20 construct": "purchased Eurofin/DiscoverX", "T20 sequence (P49840 whole entry)": "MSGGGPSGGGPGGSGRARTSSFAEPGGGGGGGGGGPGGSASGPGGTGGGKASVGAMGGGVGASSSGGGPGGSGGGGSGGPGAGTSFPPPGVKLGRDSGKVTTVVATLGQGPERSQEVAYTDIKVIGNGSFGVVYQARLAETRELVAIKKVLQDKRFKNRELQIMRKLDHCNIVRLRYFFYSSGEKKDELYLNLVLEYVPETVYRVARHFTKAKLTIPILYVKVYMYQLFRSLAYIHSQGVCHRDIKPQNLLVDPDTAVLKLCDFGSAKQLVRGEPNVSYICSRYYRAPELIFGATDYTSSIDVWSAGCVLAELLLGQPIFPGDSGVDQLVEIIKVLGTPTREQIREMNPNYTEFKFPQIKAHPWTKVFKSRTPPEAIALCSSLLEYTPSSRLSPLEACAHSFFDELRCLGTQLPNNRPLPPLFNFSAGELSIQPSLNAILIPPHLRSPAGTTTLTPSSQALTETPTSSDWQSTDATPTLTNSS", "conditions": "kinase GSK3A (Entrez GSK3A)", "procedure,_shortened": "as §1"}, "[21]": {"target": "T21, 384 kinases from the human genome (Homo sapiens, UniProt Q9NY57)", "T21 construct": "purchased Eurofin/DiscoverX", "conditions": "kinase YANK2 (Entrez STK32B)", "procedure,_shortened": "as §1"}, "[22]": {"target": "T22, 384 kinases from the human genome (Homo sapiens, UniProt P45985)", "T22 construct": "purchased Eurofin/DiscoverX", "conditions": "kinase MEK4 (Entrez MAP2K4)", "procedure,_shortened": "as §1"}, "[23]": {"target": "T23, 384 kinases from the human genome (Homo sapiens, UniProt Q6XUX3)", "T23 construct": "purchased Eurofin/DiscoverX", "conditions": "kinase RIPK5 (Entrez DSTYK)", "procedure,_shortened": "as §1"}, "[24]": {"target": "T24, 384 kinases from the human genome (Homo sapiens, UniProt Q9BUB5)", "T24 construct": "purchased Eurofin/DiscoverX", "T24 sequence (Q9BUB5 whole entry)": "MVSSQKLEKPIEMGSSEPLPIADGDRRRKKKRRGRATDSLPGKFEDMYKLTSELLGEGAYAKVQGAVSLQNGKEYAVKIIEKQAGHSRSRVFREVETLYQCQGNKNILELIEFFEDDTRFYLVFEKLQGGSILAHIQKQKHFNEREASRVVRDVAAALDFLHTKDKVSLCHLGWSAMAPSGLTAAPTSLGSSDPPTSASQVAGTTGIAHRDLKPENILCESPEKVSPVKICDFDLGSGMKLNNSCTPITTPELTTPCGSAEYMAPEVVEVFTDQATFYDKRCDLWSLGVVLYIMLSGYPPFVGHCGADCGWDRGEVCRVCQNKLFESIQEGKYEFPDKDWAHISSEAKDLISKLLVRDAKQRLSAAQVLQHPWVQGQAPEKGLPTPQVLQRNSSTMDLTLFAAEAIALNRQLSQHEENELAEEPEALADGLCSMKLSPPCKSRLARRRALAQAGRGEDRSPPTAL", "conditions": "kinase MKNK1 (Entrez MKNK1)", "procedure,_shortened": "as §1"}, "[25]": {"target": "T25, 384 kinases from the human genome (Homo sapiens, UniProt Q9UHD2)", "T25 construct": "purchased Eurofin/DiscoverX", "conditions": "kinase TBK1 (Entrez TBK1)", "procedure,_shortened": "as §1"}, "[26]": {"target": "T26, 384 kinases from the human genome (Homo sapiens, UniProt P57058)", "T26 construct": "purchased Eurofin/DiscoverX", "T26 sequence (P57058 whole entry)": "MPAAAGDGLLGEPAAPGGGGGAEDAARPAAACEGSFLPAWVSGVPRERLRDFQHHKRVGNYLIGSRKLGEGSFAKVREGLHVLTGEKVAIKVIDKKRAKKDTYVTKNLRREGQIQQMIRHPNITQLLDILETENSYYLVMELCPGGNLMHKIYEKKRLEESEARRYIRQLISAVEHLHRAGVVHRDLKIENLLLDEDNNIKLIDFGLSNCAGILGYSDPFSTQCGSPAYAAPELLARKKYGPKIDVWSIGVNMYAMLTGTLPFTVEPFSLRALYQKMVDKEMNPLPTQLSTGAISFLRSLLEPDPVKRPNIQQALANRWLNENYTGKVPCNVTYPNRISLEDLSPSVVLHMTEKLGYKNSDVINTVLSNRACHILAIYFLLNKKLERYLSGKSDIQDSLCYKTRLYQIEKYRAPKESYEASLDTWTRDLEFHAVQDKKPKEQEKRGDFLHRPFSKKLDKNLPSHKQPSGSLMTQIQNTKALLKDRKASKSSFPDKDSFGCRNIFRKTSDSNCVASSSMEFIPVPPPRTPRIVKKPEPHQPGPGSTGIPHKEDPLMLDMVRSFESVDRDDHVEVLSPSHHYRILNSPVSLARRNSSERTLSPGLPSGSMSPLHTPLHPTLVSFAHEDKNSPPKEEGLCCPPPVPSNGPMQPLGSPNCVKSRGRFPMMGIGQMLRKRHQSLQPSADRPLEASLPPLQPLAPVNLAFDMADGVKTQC", "conditions": "kinase HUNK (Entrez HUNK)", "procedure,_shortened": "as §1"}}, "data": [{"smiles": "CC(C)C(=O)N1CCN(c2ccc(NC(=O)c3cc4ccccc4o3)cc2Cl)CC1", "note": "[Compound 21]", "values": [{"measurement": "Percent Control", "setting": "[1]", "value": 96, "unit": "%"}, {"measurement": "Percent Control", "setting": "[2]", "value": 78, "unit": "%"}, {"measurement": "Percent Control", "setting": "[3]", "value": 100, "unit": "%"}, {"measurement": "Percent Control", "setting": "[4]", "value": 76, "unit": "%"}, {"measurement": "Percent Control", "setting": "[5]", "value": 55, "unit": "%"}, {"measurement": "Percent Control", "setting": "[6]", "value": 94, "unit": "%"}, {"measurement": "Percent Control", "setting": "[7]", "value": 70, "unit": "%"}, {"measurement": "Percent Control", "setting": "[8]", "value": 100, "unit": "%"}, {"measurement": "Percent Control", "setting": "[9]", "value": 100, "unit": "%"}, {"measurement": "Percent Control", "setting": "[10]", "value": 100, "unit": "%"}, {"measurement": "Percent Control", "setting": "[11]", "value": 97, "unit": "%"}, {"measurement": "Percent Control", "setting": "[12]", "value": 74, "unit": "%"}, {"measurement": "Percent Control", "setting": "[13]", "value": 91, "unit": "%"}, {"measurement": "Percent Control", "setting": "[14]", "value": 96, "unit": "%"}, {"measurement": "Percent Control", "setting": "[15]", "value": 77, "unit": "%"}, {"measurement": "Percent Control", "setting": "[16]", "value": 80, "unit": "%"}, {"measurement": "Percent Control", "setting": "[17]", "value": 100, "unit": "%"}, {"measurement": "Percent Control", "setting": "[18]", "value": 91, "unit": "%"}, {"measurement": "Percent Control", "setting": "[19]", "value": 92, "unit": "%"}, {"measurement": "Percent Control", "setting": "[20]", "value": 92, "unit": "%"}, {"measurement": "Percent Control", "setting": "[21]", "value": 98, "unit": "%"}, {"measurement": "Percent Control", "setting": "[22]", "value": 93, "unit": "%"}, {"measurement": "Percent Control", "setting": "[23]", "value": 78, "unit": "%"}, {"measurement": "Percent Control", "setting": "[24]", "value": 88, "unit": "%"}, {"measurement": "Percent Control", "setting": "[25]", "value": 100, "unit": "%"}, {"measurement": "Percent Control", "setting": "[26]", "value": 69, "unit": "%"}]}]}
